Source: patent publication US20140154717A1, “METHOD FOR DETECTING CANCER CELL USING FLUORESCENTLY LABELED L-GLUCOSE DERIVATIVE, AND CANCER CELL-IMAGING AGENT COMPRISING FLUORESCENTLY LABELED L-GLUCOSE DERIVATIVE” (priority 2011, published 2014)
Entries after “also recorded” stand apart in the source; their conditions may differ.

Assays:
[1] = Maximum excitation and fluorescence wavelength; type: physicochemical
[2] = tested on: tumor cells (C6 glioma); experiment: In vivo fluorescent imaging using C6 tumor model mice (rat glioma C6 cells transplanted subcutaneously in nude mice); design: species or system mouse
Protocol: C6 cells were prepared according to an ordinary method so that the cell number was 2×10^7 cells/mL.
C6 cells were seeded on a 10 cm petri dish, allowed to stand still in a CO2 incubator, and cultured at 37° C. The culture medium was exchanged once every two days.
1 g/L glucose-containing Dulbecco's modified Eagle's Medium (DMEM) (Nacalai No. 08456-65), to which Fetal Bovine Serum (Equitech-Bio SFBM) was added so that the final concentration was 10% and penicillin-streptomycin (Nacalai No. 26253-84) was added so that the final concentration was 1%, was used.
5 to 6-week old athymic nude mice (BALB/cAJcl-nu/nu) were transplanted with 50 μL of a cell suspension adjusted to 2×10^7 cells/mL subcutaneously around the root of right hind paw, under isoflurane anesthesia. The transplanted tumor cells were observed until growing to about 200 to 300 mm^3, and used in vivo fluorescent imaging.
C6 tumor model mice were allowed to stand still in an in vivo fluorescence imaging apparatus IVIS (registered trademark) Kinetics (Caliper Life sciences) under isoflurane anesthesia and autofluorescence of the mouse skin was measured, and subsequently, 400 nmol (100 μL) of 2-NBDLG or 2-NBDG dissolved in physiological saline was administered from the tail vein over a period of 30 seconds, and measurement of the fluorescence imaging was started again from one minute after starting administration. The in vivo fluorescence imaging was measured at an excitation wavelength of 465 nm using a GFP filter (transmittable fluorescence wavelength: 515-575 nm). The measurement was conducted for 45 minutes, and images were taken every one minute during the initial 20 minute and every 5 minutes from 20 to 45 minutes, obtaining 25 images in total. The accumulated values (fluorescence value) of 2-NBDLG and 2-NBDG in the interested area were obtained by subtracting the autofluorescence images from the 25 images taken after administration of 2-NBDLG or 2-NBDG.
A vial of 0.5 mg of 2-NBDLG or 2-NBDG was dissolved in 400 μL of physiological saline directly before the experiment, to prepare a solution having a final concentration of 400 nmol/100 μL.

[3] = tested on: mouse insulinoma cells (MIN6); experiment: Uptake into MIN6 cells with or without inhibitors, fluorescence microplate reader (Flex Station); type: cell-based; conditions: 200 μM, 5 minutes
Protocol: A difference in the uptake of 2-NBDLG (200 μM) and 2-NBDG (200 μM) into mouse insulinoma cells (MIN6) each applied for 5 minutes was analyzed quantitatively by a fluorescence microplate reader Flex Station (manufactured by Molecular Devices Corporation) in the condition whether or not various inhibitors are present. The well used for measurement was a 96-well clear bottomed well plate μ CLEAR-PLATE (Greiner bio-one, BLACK, 96 well, #655090) having longitudinally […] to 12 twelve columns, and MIN6 cell suspension prepared at a proportion of 6×10^5 cells/mL was seeded uniformly into wells from line B to line G at the third column and the fifth column each in an amount of 15 μL. For medium exchange, the half quantity was exchanged every two days in 0 to 4 DIV (days in vitro), and from 5 DIV or later, exchanged every day, and on days 10 to 13 (10 to 13 DIV), the cells were subjected to an experiment. Line A and line H were used as a control for checking correct washout, without seeding cells. In the fourth column, cells were not present, and wells in this column were used as a blank containing only Krebs Ringer buffer solution (KRB, containing 0.1 mM gap junction inhibitor carbenoxolone and 5.6 mM glucose). Evaluation was done in a way that 2-NBDLG or 2-NBDG was charged in each tube of a 8-strip PCR tube, and sucked using a 8-channel pipette and dropped simultaneously into wells. In this way, administration to wells for 2-NBDLG and to wells for 2-NBDG can be done simultaneously, making reliable evaluation possible. As described above, cells are present in 12 wells in the third and the fifth two columns, and these were divide into 4 groups each having 3 wells according to a difference either 2-NBDLG or 2-NBDG and whether an inhibitor is present or absent. Specifically, when checking the effect by the presence or absence of a GLUT inhibitor Cytochalasin B (10 μM) on the uptake of 2-NBDLG (200 μM) and 2-NBDG (200 μM), first, in wells, which are planned to be measured in the presence of Cytochalasin B, Cytochalasin B was added 5 minutes prior to the administration of the fluorescently labeled glucose derivative. Before administration of a fluorescently labeled glucose derivative, the autofluorescence was measured in each well. The measurement was done with Flex Station in Well Scan Mode and in the Bottom Read position at Ex 470 nm, Em 540 nm, Cut off 495 nm, Averaging 3, and Photomultiplier sensitivity: high. In Well Scan Mode of the fluorescence microplate reader Flex Station, one well was divided into nine observation areas and these are measured independently. The presence of approximately 5000 cells in each of 9-divided areas was separately confirmed by Z section measurement of a realtime deconvolution microscope. 2-NBDG and 2-NBDLG were administered with or without Cytochalasin B (37° C., 5 minutes), and after cessation of administration, an operation of adding 250 μL of a KRB solution containing no fluorescently labeled glucose into 50 μL of a solution in a well was repeated 7 times while measuring with a stopwatch, thereby performing washout until the fluorescence intensities of wells in line A and line H set as a control group became equal to the fluorescence intensity of the blank well containing no cell. This process required 7 minutes, and even if cells having broken plasma membrane condition are brought into contact with 2-NBDG and 2-NBDLG, and even if these compounds are once taken up into the cell, these compounds are already eliminated out of the cell and are washed away in measurement, therefore, contribution to an increase in the fluorescence intensity in the whole observation area was judged to be in an ignorable level. This was supported by a separate pharmacological inhibition experiment in which the increase in the fluorescence intensity nearly disappears in the presence of an inhibitor. The above-described method was carried out similarly in the case of other inhibitors. […]

[4] = tested on: acutely dissociated neurons; experiment: Confocal imaging of 2-NBDLM+2-TRLG mixture in acutely dissociated neurons of substantia nigra pars reticulata; type: cell-based, mouse
Protocol: NaCl 150 mM, KCl 5 mM, MgCl2 1 mM, CaCl2 2 mM, HEPES 10 mM, pH was adjusted to 7.4 by 1M Tris(2-amino-2-hydroxymethyl-1,3-propanediol) solution. The glucose concentration was 10 mM. For the purpose of inhibiting entrance and elimination of fluorescently labeled mannose via a gap junction/hemichannel, 0.1 mM Carbenoxolone (SIGMA #C4790) was added.
NaCl 124 mM, NaHCO3 26 mM, KCl 5 mM, KH2PO4 1.24 mM, CaCl2 2.4 mM, MgSO4.7H2O 1.3 mM, Glucose 10 mM, adjusted to pH7.4 by 95% O2-5% CO2 aeration.
A solution prepared by dissolving 5 mg of poly-L-lysine hydrobromide (SIGMA P6282) in 50 mL of 0.15 M boric acid (adjusted to pH 8.4 with […]) was stocked and refrigerated. This stock solution was diluted at 1/500 to 1/1000 with 0.15 M boric acid, and a cover slip (13 mm×22 mm, Matsunami No. 0 glass) was immersed in the diluted solution and allowed to fix at room temperature for 20 minutes, then, rinsed with distilled water and naturally dried.
Since 2-NBDLM is a stereoisomer of 2-NBDLG and both compounds have the same molecular weight, these compounds were prepared by basically the same method as for preparation of 2-NBDLG liquid and 2-NBDLG+2-TRLG mixture described in the prior publication WO2010/016587 of the present inventors. The concentration of a solution for the administration was as follows. The whole quantity of a 0.5 mg vial was dissolved in 14.6 mL of a HEPES solution for image acquisition to give a 2-NBDLM solution having a final concentration of 100 μM. The dissolving method was carried out similarly to that for preparation of a 2-NBDLG solution in Example 3.
Acutely dissociated neuronal cells were prepared as described below according to the same method as described in the prior publication WO2010/016587 of the present inventors.
Postnatal 13 to 17-day old (juvenile stage) C57BL/6J mice were anesthetized deeply with urethane (i.p. 1.6 g/kg), decapitated according to an ordinary method, then, brain was taken out while pouring a cold Ringer's solution (0° C.) for dissociation, and placed on an ice-cold petri dish and immediately trimmed, then, coronally sectioned brain slices having a thickness of 400 or 500 μm were prepared by a linear slicer (Dosaka Pro7) in a cold Ringer's solution (0° C.). Then, the slice was allowed to restore for 1 hour at room temperature in a chamber (Acrylic incubation chamber manufactured by Harvard Apparatus) containing the above-described Ringer's solution circulating therein through which 95% O2-5% CO2 had been aerated.
The brain slice was immersed in an enzyme solution (31° C.; kept at pH7.4 by aeration with 95% O2-5% CO2) prepared by dissolving a proteolytic enzyme Pronase (10 mg/60 mL) in the above-described Ringer's solution and enzymatically treated. After predetermined period, the enzymatic reaction was stopped by immediately immersing the brain slice in 50-100 mL of a 10 mM glucose-containing HEPES solution at room temperature.
A 60 or 100 mm plastic dish having a silicon plate attached to the bottom was filled with a 10 mM glucose-containing HEPES solution (room temperature, obtained by removing Carbenoxolon from a HEPES solution for confocal image acquisition), and the above-described brain slice was immersed in the solution. Two 27 gauge syringe needles were used to immobilize the brain slice, and left and right mesencephalic substantia nigra pars reticulata were punched out under a microscope with a 18 gauge syringe needle having a tip deformed into an ellipsoidal shape, and preserved at room temperature in the above-described HEPES solution (35 mm culture dish).
Neurons were dissociated by trituration with glass pipettes adjusted to have various point diameters, and allowed to adhere to a glass cover slip coated with poly-L-lysine.
Administration of a mixture was carried out in the same manner as the method of administration to MIN6 cells described in Example 3 (4) to (6).

[5] = 100 μM 2-NBDLM+20 μM 2-TRLG for 5 minutes

CN(C)S(=O)(=O)c1ccc(N[C@H](C=O)[C@H](O)[C@@H](O)[C@@H](O)CO)c2nonc12 [2-DBDLG]
Maximum fluorescence wavelength [1]: 570 nm

O=[N+]([O-])c1ccc(NC2C(O)OC(CO)[C@@H](O)[C@@H]2O)c2nonc12 (stereo partly drawn) [2-NBDG, 2-[N-(7-nitrobenz-2-oxa-1,3-diazole-4-yl)amino]-2-deoxy-D-glucose, reference compound]
fluorescence values at tumor-transplanted part (Tumor) versus normal tissue (BG), FIG. 3 ([2]; 400 nmol i.v., temporal change over 45 minutes, same result in 6 examples): fluorescence values at normal tissue (red square, BG) are larger than at the tumor-transplanted part
time from which accumulations at the tumor cell-transplanted part were recognized ([2]; 400 nmol/100 μL from the tail vein): around 5 minutes after administration
contrast between tumor-transplanted part and normal tissue (adipocyte-rich dorsal part near neck) ([2]; 400 nmol/100 μL from the tail vein, non-fasted mice): poor contrast; also recorded: not sufficient
uptake/accumulation in normal tissue ([2]; 400 nmol/100 μL from the tail vein, normal tissue (fat tissue on the back, between back bones, muscle)): Intense accumulations
effect of GLUT inhibitor Cytochalasin B on uptake into MIN6 cells ([3]; 37° C., Cytochalasin B (10 µM, CB)): significant decrease
uptake into MIN6 cells in buffer containing Na+ versus no Na+ ion (SGLT) ([3]; 37° C., Na(−) buffer, choline substituted): no significant difference
effect of Phloretin on uptake into MIN6 cells ([3]; Phloretin (150 μM, PHT)): underwent inhibition of the uptake

O=[N+]([O-])c1ccc(NC2C(O)OC(CO)[C@H](O)C2O)c2nonc12 (stereo partly drawn) [2-NBDLM, 2-Deoxy-2-[N-(7-nitrobenz-2-oxa-1,3-diazol-4-yl)amino]-L-mannose]
fluorescence in degraded cells, 10 minutes after cessation of administration ([4]; 100 μM 2-NBDLM+20 μM 2-TRLG): already decreased significantly
fluorescence in healthy neuron, 10 minutes after cessation of administration ([4]; 100 μM 2-NBDLM+20 μM 2-TRLG): preserved in the cell
fluorescence in healthy neuron, 22 minutes after cessation of administration ([4]; 100 μM 2-NBDLM+20 μM 2-TRLG): preserved in the cell
uptake into healthy neuron, 2 minutes after cessation of administration ([4]; 100 μM 2-NBDLM+20 μM 2-TRLG): all cells take up
uptake into normal neurons (conclusion) ([4]; 100 μM 2-NBDLM+20 μM 2-TRLG): taken up into normal mouse neurons
uptake into degraded cells during administration [4, 5]: completely invading a cell
uptake into healthy neuron during administration [4, 5]: taken up into a cell during administration
Maximum excited wavelength [1]: 472 nm
Maximum fluorescence wavelength [1]: 539 nm

O=[N+]([O-])c1ccc(NC2C(O)OC(CF)[C@H](O)C2O)c2nonc12 (stereo partly drawn) [6-F-2-NBDLG, 2,6-Dideoxy-6-fluoro-2-[N-(7-nitrobenz-2-oxa-1,3-diazol-4-yl)amino]-L-glucopyranose]
Maximum excited wavelength [1]: 472 nm
Maximum fluorescence wavelength [1]: 538 nm
